The test system of test [1] is Mycobacterium tuberculosis. The experiment in a line: Antimycobacterial activity against Mycobacterium tuberculosis H37Rv assessed as growth inhibition in presence of GAST minimal media. It is filed as functional.
Test [2] relates to Mycobacterium tuberculosis. Nature of the test: Antimycobacterial activity against Mycobacterium tuberculosis H37Rv assessed as growth inhibition in presence of 7H9 nutrient-rich media. The class given is functional.
Test [3] concerns the target T1, 1-deoxy-D-xylulose 5-phosphate reductoisomerase (Mycobacterium tuberculosis) (UniProt P9WNS1).
T1 sequence (whole entry): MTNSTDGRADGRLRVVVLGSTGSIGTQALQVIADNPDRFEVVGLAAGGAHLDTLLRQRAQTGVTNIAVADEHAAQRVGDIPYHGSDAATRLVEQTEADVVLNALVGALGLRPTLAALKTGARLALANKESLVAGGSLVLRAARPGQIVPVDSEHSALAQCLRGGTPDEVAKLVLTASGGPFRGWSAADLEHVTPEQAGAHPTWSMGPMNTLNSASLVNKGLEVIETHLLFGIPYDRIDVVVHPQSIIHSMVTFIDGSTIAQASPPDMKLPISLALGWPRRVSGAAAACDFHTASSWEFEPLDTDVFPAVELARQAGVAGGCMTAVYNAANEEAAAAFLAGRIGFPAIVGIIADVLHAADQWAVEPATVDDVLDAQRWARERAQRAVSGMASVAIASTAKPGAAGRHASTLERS
The experiment in a line: Inhibition of Mycobacterium tuberculosis Dxr at 100 uM.

Test [4] concerns the target T2, 1-deoxy-D-xylulose 5-phosphate reductoisomerase (Mycobacterium tuberculosis, UniProt P9WNS1).
T2 sequence (P9WNS1 whole entry): T1 sequence (whole entry)
The experiment in a line: Inhibition of Mycobacterium tuberculosis Dxr.

As usually defined, the MIC is the lowest concentration found to suppress growth. Broadly, the inhibition is the share of the control response that was lost under treatment. Read a high inhibition as a strong effect. As a reminder, the IC50 is the point on the concentration scale where inhibition reaches its midpoint. A higher IC50 goes with weaker potency in that assay.

Take `CCOP(=O)(CCCCN(O)C(C)=O)OCC`: the results for the MIC in test [1] and in test [2] were 75 µg/mL and above 200 µg/mL, respectively.

For the compound `CCOP(=O)(/C=C/CN(O)C(C)=O)OCC`, the results for the MIC in test [1] and in test [2] were 150 µg/mL and above 200 µg/mL, respectively.

For `CCOP(=O)(CCN(O)C=O)OCC`, the MIC in test [2] is above 500 µg/mL.

As for `CC(=O)N(O)CCCCCP(=O)([O-])O.[Na+]`, the minimal inhibitory concentration (MIC) in test [1] and in test [2] was above 200 µg/mL throughout. Further, the inhibition in test [3] was 86%.

Turning to `CCOP(=O)(CCCCCN(O)C(C)=O)OCC`, the figures for the MIC in test [1] and in test [2] were 200 µg/mL and above 200 µg/mL, respectively.

Take `CC(=O)N(O)CCCP(=O)(O)O` [FR-900098]: in test [4], the IC50 amounted to 2.39 µM.

For `CC(=O)N(O)C/C=C/P(=O)([O-])O.[Na+]`, the minimal inhibitory concentration (MIC) is 150 µg/mL in test [1] and above 200 µg/mL in test [2]. Besides, in test [4], the IC50 was 1.07 µM.

Turning to `CC(=O)N(O)CCCCP(=O)([O-])O.[Na+]`, the MIC in test [1] and in test [2] was above 200 µg/mL each time. The compound further returned an inhibition in test [3] of 80%.

Turning to `CC(=O)N(O)CCP(=O)([O-])O.[Na+]`, the results for the MIC in test [1] and in test [2] were 150 µg/mL and above 200 µg/mL, respectively. The inhibition in test [3] came to 74%.

Regarding `CC(=O)N(O)CCCCP(=O)(OCOC(=O)C(C)(C)C)OCOC(=O)C(C)(C)C`, the MIC is 150 µg/mL in test [1] and at least 200 µg/mL in test [2].

In the case of `CC(=O)N(O)C/C=C/P(=O)(OCOC(=O)C(C)(C)C)OCOC(=O)C(C)(C)C`, the MIC in test [1] was found to be 12.5 µg/mL; in test [2] it was 9.4 µg/mL.

In the case of `CCOP(=O)(CCN(O)C(C)=O)OCC`, the MIC in test [2] was above 500 µg/mL.

The record behind these values is ChEMBL document CHEMBL3102733, “The effect of chain length and unsaturation on Mtb Dxr inhibition and antitubercular killing activity of FR900098 analogs” (Bioorg Med Chem Lett, 2014).
